Our source for the target mRNA inhibition values is the OligoGym collection.

Several values for one entry are separate records, joined by “and”; a condition that tells them apart may be missing. Identical values can stand only once. After the bases stand the sugars from the 5' end (letter, count) and the backbone: PS all phosphorothioate, else s phosphorothioate and o phosphodiester by linkage. Methylation of C is not given here. e = 2'-O-(2-methoxyethyl) (MOE); k = constrained ethyl (cEt); d = 2'-deoxy (DNA)

The target in this data set is IRF4. The settings on record: ASO.

As for TTGTTCCACCCCTGGG (sugars k3 d10 k3, PS), the target mRNA inhibition (SK-MEL-28, 4 µM) was 47%.
Still for that read-out and setting: in the case of GGAATCTTGGCAGGGA (sugars k3 d10 k3, PS) it was 48%; in that of TAACACGGTGTTGACA (sugars k3 d10 k3, PS), 35%.
“CCTCAGTTTGTGAAGC (sugars kddddddddddkekek, PS)”: where the note is “MM.1R, 1 µM”, the target mRNA inhibition is 26%.
As to GCGAGTTGGCACAATT (sugars k3 d10 k3, PS), the target mRNA inhibition (MM.1R, 1 µM) was 27% and 37%.
Still for that read-out and setting: in the case of TATCCTGTAGTATGAG (sugars k3 d10 k3, PS) it was 42%.
As to AAGTAACTGACACGCA (sugars k3 d10 k3, PS), the target mRNA inhibition (SK-MEL-28, 4 µM) stood at 23%.
The same measure, in the same setting: as for ACAGGACCTGGTCCAG (sugars k3 d10 k3, PS), the figure is 35%.
On the same count and under the same terms, as for GCGGAGCTTCCCGTTG (sugars k3 d10 k3, PS), the figure is 33%.
In the case of “CTGCTTGAGGTTTTCC (sugars kkdddddddddekeke, PS)”, the target mRNA inhibition (MM.1R, 1 µM) amounted to 49%.
Turning to CTTCCCTGAGAAATGG (sugars k4 d8 k4, PS), for the setting “SK-MEL-28, 4 µM”, the target mRNA inhibition came to 36%.
On to TGCATAACACGGTGTT (sugars k3 d10 k3, PS), for which the target mRNA inhibition (SK-MEL-28, 4 µM) is 38%.
Turning to TTGTTTGCAAGCTATA (sugars k3 d10 k3, PS), under “MM.1R, 1 µM”, the target mRNA inhibition came to 36%.
For “CAGTTGTAAATGAGTC (sugars kdddddddddkekeke, PS)”, the target mRNA inhibition is, setting by setting: (H929, 0.00067 µM) 9%; (H929, 0.002 µM) 26%; (H929, 0.00667 µM) 39%; (H929, 0.02 µM) 48%; (H929, 0.04 µM) 27%; (KMS11, 0.2 µM) 62% and 74%. Moreover, the target mRNA inhibition was 20% (MM.1R, 0.074 µM); 36% (MM.1R, 0.222 µM); 59% (MM.1R, 0.666 µM); 62% (MM.1R, 1 µM); 79% (MM.1R, 2 µM).
With TCCACCTGCATCGAGA (sugars k3 d10 k3, PS), the target mRNA inhibition (SK-MEL-28, 4 µM) was 47%.
As to CTTAAGCAAGTGGAGG (sugars k3 d10 k3, PS), under “SK-MEL-28, 4 µM”, the target mRNA inhibition came out at 70%.
As for TCTGGATGAGCTTACA (sugars k3 d10 k3, PS), the target mRNA inhibition (MM.1R, 1 µM) came out at 14%.
Turning to ACTGCCGTGATCTGAG (sugars k3 d10 k3, PS), the target mRNA inhibition (MM.1R, 1 µM) was 34% and 29%.
The same measure, in the same setting: as for AAGTTCTAGTCGCGCA (sugars k3 d10 k3, PS), the figure is 11%; as for TACCGATGCTTCAAGA (sugars k3 d10 k3, PS), -3%.
Turning to CTCCAGGGAATGGATA (sugars k3 d10 k3, PS), the target mRNA inhibition (SK-MEL-28, 4 µM) is 27%.
Still for that read-out and setting: in the case of TCTGAGAGCAAATTGA (sugars k3 d10 k3, PS) it was 29%.
On the same count and under the same terms, as for CTGCTCTGGCACAGTC (sugars k3 d10 k3, PS), the figure is 83%; as for GTTACTAATTCCATAG (sugars k3 d10 k3, PS), 49%.
Turning to “CGTGTGCTTGCCAAGC (sugars kkdddddddddkdkdk, PS)”, where the note is “MM.1R, 1 µM”, the target mRNA inhibition was 67% and 53%.
On the same count and under the same terms, in the case of AGTACAGTCCACTCCA (sugars k3 d10 k3, PS) it was 7%.
Turning to GCTACATTTCTTATGC (sugars k3 d10 k3, PS), the target mRNA inhibition (SK-MEL-28, 4 µM) was determined as 20%.
Regarding TACTAGGTGCTTGTTG (sugars k3 d10 k3, PS), the target mRNA inhibition (SK-MEL-28, 4 µM) came to 49%.
For the sequence “GGGATTATATACTGGT (sugars kkdddddddddkekek, PS)”, the target mRNA inhibition (MM.1R, 1 µM) stood at 40%.
For the sequence ATCTGAGACTACACCT (sugars k3 d10 k3, PS), under “MM.1R, 1 µM”, the target mRNA inhibition was -8%.
CTAGATAACATGAGAG (sugars k3 d10 k3, PS): the target mRNA inhibition (SK-MEL-28, 4 µM) is 53%.
As for GGGCCCGTCCCAGTAG (sugars k3 d10 k3, PS), the target mRNA inhibition (SK-MEL-28, 4 µM) turned out to be 20%.
Consider “CAGTTGTAAATGAGTC (sugars kkkddddddddkekek, PS)”, for which the target mRNA inhibition was 26% (MM.1R, 0.074 µM); 52% (MM.1R, 0.222 µM); 75% (MM.1R, 0.666 µM); 76% (MM.1R, 1 µM); 88% (MM.1R, 2 µM).
